We go through 7 compounds from publication PMC11851430, “Workflow for E3 Ligase Ligand Validation for PROTAC Development” (ACS Chemical Biology, 2025).

In one assay the target is T1, DYRK1A (Homo sapiens, UniProt Q13627).
T1 construct: purchased in-house DSF panel (SGC-style construct names; the trailing A/B is a construct suffix)
In words: DSF assay. Conditions: 20 µM compound. The class given is binding.

Another assay concerns the target T2, BMXA (Homo sapiens, UniProt P51813).
T2 construct: purchased in-house DSF panel (SGC-style construct names; the trailing A/B is a construct suffix)
Put plainly: DSF assay. In kind it is binding. Conditions: 20 µM compound.

The target in a further assay is T3, NEK7A (Homo sapiens, UniProt Q8TDX7).
T3 construct: purchased in-house DSF panel (SGC-style construct names; the trailing A/B is a construct suffix)
T3 sequence (Q8TDX7 34-299): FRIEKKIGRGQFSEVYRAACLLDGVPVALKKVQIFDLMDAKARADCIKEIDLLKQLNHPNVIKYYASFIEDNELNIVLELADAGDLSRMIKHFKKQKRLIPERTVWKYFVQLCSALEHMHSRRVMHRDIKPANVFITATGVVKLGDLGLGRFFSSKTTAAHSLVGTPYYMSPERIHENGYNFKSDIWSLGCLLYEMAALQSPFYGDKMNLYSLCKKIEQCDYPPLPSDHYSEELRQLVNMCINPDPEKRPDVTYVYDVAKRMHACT
Put plainly: DSF assay. The class given is binding. Conditions: 20 µM compound.

The target of the next assay is T4, FGFR2A (Homo sapiens, UniProt P21802).
T4 construct: purchased in-house DSF panel (SGC-style construct names; the trailing A/B is a construct suffix)
T4 sequence (P21802 458-770): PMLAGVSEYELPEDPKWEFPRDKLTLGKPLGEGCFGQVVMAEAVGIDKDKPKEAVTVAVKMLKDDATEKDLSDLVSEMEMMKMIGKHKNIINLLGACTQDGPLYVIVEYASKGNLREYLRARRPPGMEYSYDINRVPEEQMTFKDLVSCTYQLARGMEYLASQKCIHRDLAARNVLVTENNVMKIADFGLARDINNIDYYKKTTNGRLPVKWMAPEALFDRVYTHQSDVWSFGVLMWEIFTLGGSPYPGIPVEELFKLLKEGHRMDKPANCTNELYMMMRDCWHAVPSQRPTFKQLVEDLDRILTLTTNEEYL
Put plainly: DSF assay. In kind it is binding. To be noted: 20 µM compound.

The next assay has as its target T5, CAMKK2B (Homo sapiens, UniProt Q96RR4).
T5 construct: purchased in-house DSF panel (SGC-style construct names; the trailing A/B is a construct suffix)
In words: DSF assay. The class given is binding. Conditions: 20 µM compound.

The next assay addresses T6, MAPKAPK2A (Homo sapiens, UniProt P49137).
T6 construct: purchased in-house DSF panel (SGC-style construct names; the trailing A/B is a construct suffix)
Put plainly: DSF assay. In kind it is binding. To be noted: 20 µM compound.

The next assay addresses T7, MAPK6 (Homo sapiens, UniProt Q16659).
T7 construct: purchased in-house DSF panel (SGC-style construct names; the trailing A/B is a construct suffix)
Put plainly: DSF assay. Conditions: 20 µM compound. The class given is binding.

The next assay deals with T8, CAMK1GA (Homo sapiens, UniProt Q96NX5).
T8 construct: purchased in-house DSF panel (SGC-style construct names; the trailing A/B is a construct suffix)
T8 sequence (Q96NX5 23-277): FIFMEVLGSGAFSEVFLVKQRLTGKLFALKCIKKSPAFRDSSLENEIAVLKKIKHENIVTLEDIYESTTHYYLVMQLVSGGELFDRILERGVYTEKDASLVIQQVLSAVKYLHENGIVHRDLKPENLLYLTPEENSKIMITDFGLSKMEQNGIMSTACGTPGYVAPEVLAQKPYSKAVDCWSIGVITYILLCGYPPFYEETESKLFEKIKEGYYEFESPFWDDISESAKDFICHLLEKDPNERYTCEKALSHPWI
Put plainly: DSF assay. Conditions: 20 µM compound. The class given is binding.

Another assay has as its target T9, DYRK2A (Homo sapiens, UniProt Q92630).
T9 construct: purchased in-house DSF panel (SGC-style construct names; the trailing A/B is a construct suffix)
T9 sequence (Q92630 146-552): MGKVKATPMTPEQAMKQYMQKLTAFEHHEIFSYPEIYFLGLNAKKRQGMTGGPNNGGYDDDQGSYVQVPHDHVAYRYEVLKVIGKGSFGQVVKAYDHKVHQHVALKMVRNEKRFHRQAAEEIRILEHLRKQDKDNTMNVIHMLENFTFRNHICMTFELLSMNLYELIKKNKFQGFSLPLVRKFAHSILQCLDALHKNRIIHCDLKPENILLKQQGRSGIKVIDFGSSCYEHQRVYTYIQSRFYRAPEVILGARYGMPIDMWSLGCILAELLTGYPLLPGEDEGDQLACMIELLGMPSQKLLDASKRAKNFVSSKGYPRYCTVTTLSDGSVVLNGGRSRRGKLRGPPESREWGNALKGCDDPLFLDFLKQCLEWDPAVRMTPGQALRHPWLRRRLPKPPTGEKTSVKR
Put plainly: DSF assay. In kind it is binding. Conditions: 20 µM compound.

Another assay concerns the target T10, DAPK1A (Homo sapiens, UniProt P53355).
T10 construct: purchased in-house DSF panel (SGC-style construct names; the trailing A/B is a construct suffix)
Put plainly: DSF assay. In kind it is binding. To be noted: 20 µM compound.

The subject of a further assay is TAF1A. In words: DSF assay. In kind it is binding. To be noted: 20 µM compound.
For the next assay, the target named is T11, OSR1A (Homo sapiens, UniProt O95747).
T11 construct: purchased in-house DSF panel (SGC-style construct names; the trailing A/B is a construct suffix)
T11 sequence (O95747 17-291): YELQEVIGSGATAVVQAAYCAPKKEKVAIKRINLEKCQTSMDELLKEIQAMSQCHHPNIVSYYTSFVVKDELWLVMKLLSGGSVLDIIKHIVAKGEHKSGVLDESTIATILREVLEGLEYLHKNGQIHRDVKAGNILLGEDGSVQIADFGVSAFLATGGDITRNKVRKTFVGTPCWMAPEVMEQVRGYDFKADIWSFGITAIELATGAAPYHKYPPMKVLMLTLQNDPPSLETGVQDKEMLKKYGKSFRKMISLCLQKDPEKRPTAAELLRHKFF
Put plainly: DSF assay. In kind it is binding. To be noted: 20 µM compound.

Another assay deals with T12, EPHA2A (Homo sapiens, UniProt P29317).
T12 construct: purchased in-house DSF panel (SGC-style construct names; the trailing A/B is a construct suffix)
T12 sequence (P29317 596-900): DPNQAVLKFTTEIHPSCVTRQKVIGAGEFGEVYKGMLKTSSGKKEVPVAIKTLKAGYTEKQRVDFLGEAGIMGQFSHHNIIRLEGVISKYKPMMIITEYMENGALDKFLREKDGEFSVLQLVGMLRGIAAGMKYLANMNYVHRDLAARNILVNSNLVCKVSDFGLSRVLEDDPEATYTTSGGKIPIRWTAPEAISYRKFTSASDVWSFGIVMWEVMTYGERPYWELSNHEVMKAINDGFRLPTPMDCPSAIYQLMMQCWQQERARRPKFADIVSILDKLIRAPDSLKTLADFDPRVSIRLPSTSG
Put plainly: DSF assay. The class given is binding. To be noted: 20 µM compound.

In a further assay the target is T13, AURKA (Homo sapiens, UniProt O14965).
T13 sequence (O14965 1-403): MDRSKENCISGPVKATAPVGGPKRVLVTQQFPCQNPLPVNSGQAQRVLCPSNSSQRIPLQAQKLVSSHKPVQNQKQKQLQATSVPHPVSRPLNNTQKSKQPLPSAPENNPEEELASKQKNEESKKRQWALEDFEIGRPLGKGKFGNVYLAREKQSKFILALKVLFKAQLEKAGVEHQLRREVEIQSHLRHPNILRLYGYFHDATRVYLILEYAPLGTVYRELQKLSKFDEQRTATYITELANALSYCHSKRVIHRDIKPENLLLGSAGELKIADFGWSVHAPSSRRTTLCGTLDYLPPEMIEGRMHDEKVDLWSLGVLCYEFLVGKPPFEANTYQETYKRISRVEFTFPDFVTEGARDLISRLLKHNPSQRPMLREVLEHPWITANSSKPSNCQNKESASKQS
In words: Western blot assay. In kind it is cell-based. Conditions: Jurkat cells, 6 h. Set-up: endogenous in cells; host or cells: Jurkat. The protocol: Two mL of Jurkat cells were seeded into 6 well plates (Greiner) at a density of 5·10 5 cells/mL.
The following day, cells were treated with compounds at according concentrations or DMSO for 6 hours and then lysed with 6 M Urea at 4 °C for 20 minutes. The lysates were centrifuged for 15 minutes at 16000 g and the supernatant was collected to perform the Western-Blot.
Protein quantification was performed using nanodrop One. The SDS samples were prepared […]
The samples were separated by a BIS-TRIS polyacrylamide gel polyacrylamide gel, 100 V for 1:45) followed by transfer to PVDF membranes (Millipore) at 350 mA for 140 minutes. The membranes were blocked using 5%wt/vol BSA (in TBS-T, 20 mM Tris-HCl, pH 7.5, 150 mM NaCl and 0.1% (vol/vol) Tween 20) at room temperature for 1 hour.
(§1) The blots were incubated with respective primary antibodies at 1:1000 dilution (Cell Signaling technologies: Aurora A (D3E4Q), ITK (2F12) and GAPDH (D4C6R)) at 4 °C overnight. The blots were washed with TBS-T thrice and incubated with 1:5000 dilution of horseradish peroxidase (HRP)-labelled respective secondary antibodies (Cell Signaling technologies, Anti- […]
(§2) The blots were washed with TBS-T thrice and then incubated with chemiluminescent HRP substrate (Bio-Rad) for 2 minutes. The blots were imaged and the signals were detected using the Amersham ImageQuant 800 (Cytiva).
(§3) Cell culture. Human MV4-11 ([…]) and human Jurkat ([…]) cells were cultured in RPMI- […]
(§4) °C in 5% CO2. Both media were supplemented with 10% FBS and 1% penicillin/streptomycin. […]

The target of a further assay is T14, AURKA^HiBiT (Homo sapiens, UniProt O14965).
T14 construct: expressed in transfected cells
T14 sequence (O14965 1-403): T13 sequence (O14965 1-403)
In words: HiBiT assay, MV4-11 cells expressing AURKA^HiBiT. To be noted: 6 h; for rescue of AURKA degradation by cotreatment with proteasome inhibitor MG132 / rescue of AURKA levels by cotreatment with neddylation inhibitor MLN4924: MV4-11 AURKA^HiBiT cells; for AURKA^HiBiT protein levels: MV4-11 cells. The class given is cell-based. The protocol: as §1, §2, §3, §4
Cell line generation. The stable cell line MV4-11 AURORA−HiBiT was generated as previously described.14 Lentiviral infection was used to generate the stable Jurkat HiBiT cell line. […] HiBiT Measurements. HiBiT assay was performed as described previously. 14 Briefly, MV4-11 and Jurkat HiBiT cells were seeded and treated with compounds for the indicated time. Nano-Glo HiBiT Lytic Detection System (Promega) was used for the assay and luminescence was measured on a Tecan Spark Multiplate reader (Tecan). DC50s were calculated using the dose-response (four parameters) equation in Prism (GraphPad).

T6 sequence (P49137 64-325): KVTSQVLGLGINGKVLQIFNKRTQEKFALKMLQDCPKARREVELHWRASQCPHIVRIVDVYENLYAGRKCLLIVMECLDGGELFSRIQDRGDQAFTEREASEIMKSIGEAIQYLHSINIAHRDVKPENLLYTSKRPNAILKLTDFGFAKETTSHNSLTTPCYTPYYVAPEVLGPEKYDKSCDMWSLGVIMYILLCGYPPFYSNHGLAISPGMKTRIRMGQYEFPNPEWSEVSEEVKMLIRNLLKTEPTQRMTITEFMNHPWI
T10 sequence (P53355 1-285): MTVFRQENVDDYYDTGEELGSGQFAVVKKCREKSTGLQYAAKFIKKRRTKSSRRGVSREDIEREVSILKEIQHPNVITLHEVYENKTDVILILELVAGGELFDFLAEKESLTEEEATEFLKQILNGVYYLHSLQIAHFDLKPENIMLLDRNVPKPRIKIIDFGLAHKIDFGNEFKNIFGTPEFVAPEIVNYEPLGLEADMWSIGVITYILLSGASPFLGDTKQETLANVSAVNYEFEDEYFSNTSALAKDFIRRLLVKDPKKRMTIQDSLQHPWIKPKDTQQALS
T2 sequence (P51813 411-675): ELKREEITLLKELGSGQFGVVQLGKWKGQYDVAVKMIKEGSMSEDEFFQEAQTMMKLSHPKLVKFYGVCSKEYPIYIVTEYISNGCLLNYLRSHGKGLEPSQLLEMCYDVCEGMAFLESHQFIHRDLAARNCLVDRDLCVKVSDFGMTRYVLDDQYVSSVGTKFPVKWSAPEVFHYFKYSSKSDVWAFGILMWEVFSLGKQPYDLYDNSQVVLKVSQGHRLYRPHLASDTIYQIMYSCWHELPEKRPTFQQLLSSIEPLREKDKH
T7 sequence (Q16659 9-327): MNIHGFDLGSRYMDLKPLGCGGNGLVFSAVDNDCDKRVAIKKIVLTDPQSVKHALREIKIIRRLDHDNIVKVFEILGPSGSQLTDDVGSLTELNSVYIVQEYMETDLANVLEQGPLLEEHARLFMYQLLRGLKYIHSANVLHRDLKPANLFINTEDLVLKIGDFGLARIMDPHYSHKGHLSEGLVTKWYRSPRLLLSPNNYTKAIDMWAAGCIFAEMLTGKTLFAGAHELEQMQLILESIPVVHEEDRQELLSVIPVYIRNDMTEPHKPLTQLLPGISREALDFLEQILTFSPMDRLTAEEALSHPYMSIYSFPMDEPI
T5 sequence (Q96RR4 161-449): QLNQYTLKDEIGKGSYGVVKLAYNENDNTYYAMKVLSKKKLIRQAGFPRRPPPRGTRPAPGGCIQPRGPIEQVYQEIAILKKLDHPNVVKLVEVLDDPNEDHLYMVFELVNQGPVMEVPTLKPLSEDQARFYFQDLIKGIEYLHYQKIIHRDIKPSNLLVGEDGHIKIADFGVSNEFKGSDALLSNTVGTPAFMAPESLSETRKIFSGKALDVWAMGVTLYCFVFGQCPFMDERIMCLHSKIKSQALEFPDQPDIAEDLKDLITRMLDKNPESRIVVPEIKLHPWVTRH

On to `CC(C)(C)OC(=O)NCCCOCCOCCOCCCNC(=O)c1cc(Nc2cc(C3CC3)[nH]n2)nc(Nc2ccc(CC#N)cc2)n1` [5-L], for which the ΔTm at 20 µM at DYRK1A was determined as 8.01 °C; on BMXA, 1.62 °C; at NEK7A it was 0.5 °C; at FGFR2A, 3.37 °C; on CAMKK2B it was 10.7 °C; on MAPKAPK2A, 0.95 °C. Also, the ΔTm at 20 µM at MAPK6 stood at 0.51 °C; on CAMK1GA, 3.37 °C; on DYRK2A, 7.69 °C; on DAPK1A, 1.49 °C; at OSR1A, 3.94 °C; on EPHA2A, 4.48 °C. Also, the ΔTm in the assay with TAF1A was found to be 0.26 °C.

`Cc1ncsc1-c1ccc(CNC(=O)[C@@H]2C[C@@H](O)CN2C(=O)[C@@H](NC(=O)CCOCCOCCOCCN2CCN(c3cc(Nc4cc(C5CC5)[nH]n4)nc(Nc4ccc(CC#N)cc4)n3)CC2)C(C)(C)C)cc1` [4-a]: the “AURKA protein levels (Western blot)” value on AURKA is “only a weak reduction in AURKA levels”. In addition, on AURKA^HiBiT, the “rescue of AURKA degradation by cotreatment with proteasome inhibitor MG132” value is recorded as “complete rescue”, the “rescue of AURKA levels by cotreatment with neddylation inhibitor MLN4924” value is reported as “only partial rescue” and the “AURKA^HiBiT protein levels” value was “dose-dependent degradation of AURKA”.

On to `Cc1ncsc1-c1ccc(CNC(=O)[C@@H]2C[C@@H](O)CN2C(=O)[C@@H](NC(=O)CCOCCOCCOCCOCCN2CCN(c3ccc(Nc4ncc(Cl)c(Nc5ccccc5C(N)=O)n4)cc3)CC2)C(C)(C)C)cc1` [6-b], for which the “AURKA protein levels (Western blot)” value at AURKA is “only a weak reduction in AURKA levels”. Further, at AURKA^HiBiT, the “rescue of AURKA degradation by cotreatment with proteasome inhibitor MG132” value is listed as “complete rescue”, the “rescue of AURKA levels by cotreatment with neddylation inhibitor MLN4924” value is “only partial rescue” and the “AURKA^HiBiT protein levels” value is “dose-dependent degradation of AURKA”.

Take `Cc1ncsc1-c1ccc(CNC(=O)[C@@H]2C[C@H](O)CN2C(=O)[C@@H](NC(=O)CCOCCOCCOCCOCCN2CCN(c3ccc(Nc4ncc(Cl)c(Nc5ccccc5C(N)=O)n4)cc3)CC2)C(C)(C)C)cc1` [6-b^neg]: at AURKA, the “AURKA protein levels (Western blot)” value is “no effect on AURKA levels”. In addition, on AURKA^HiBiT, the “AURKA^HiBiT protein levels” value was “weak reduction of AURKA levels”.

With `CCOC(=O)c1cc(Nc2cc(C3CC3)[nH]n2)nc(Nc2ccc(CC#N)cc2)n1` [compound 5], the thermal shift (ΔTm) at 20 µM on DYRK1A amounted to 6.85 °C; on BMXA it was 2.01 °C; on NEK7A it was 0.0755 °C; on FGFR2A, 6.36 °C; on CAMKK2B, 9.77 °C; on MAPKAPK2A, 0.53 °C. For the same compound, the ΔTm at 20 µM on MAPK6 was -0.45 °C; on CAMK1GA, 1.53 °C; on DYRK2A, 7.58 °C; at DAPK1A, 3.22 °C; on OSR1A, 3.5 °C; at EPHA2A, 6.12 °C. Further, the shift in melting temperature (ΔTm) in the assay on TAF1A worked out at 0.35 °C.

For `Cc1ncsc1-c1ccc(CNC(=O)[C@@H]2C[C@H](O)CN2C(=O)[C@@H](NC(=O)CCOCCOCCOCCN2CCN(c3cc(Nc4cc(C5CC5)[nH]n4)nc(Nc4ccc(CC#N)cc4)n3)CC2)C(C)(C)C)cc1` [4-a^neg], the “AURKA protein levels (Western blot)” value at AURKA is “no effect on AURKA levels”. Besides, the “AURKA^HiBiT protein levels” value on AURKA^HiBiT is “weak reduction of AURKA levels”.

Take `CC(C)(C)OC(=O)NCCOCCOCCOCCOCCC(=O)N1CCN(c2cc(Nc3cc(C4CC4)[nH]n3)nc(Nc3ccc(CC#N)cc3)n2)CC1` [4-L]: the ΔTm at 20 µM at DYRK1A came out at 7.48 °C; at BMXA, 5.53 °C; on NEK7A, 0.39 °C; at FGFR2A it was 7.61 °C; on CAMKK2B, 15.4 °C; on MAPKAPK2A, 0.42 °C. Also, the ΔTm at 20 µM at MAPK6 is -0.18 °C; on CAMK1GA it was 0.98 °C; at DYRK2A it was 7.18 °C; on DAPK1A, 2.7 °C; at OSR1A it was 3.71 °C; at EPHA2A, 8.99 °C. In the assay with TAF1A, the thermal shift (ΔTm) is -0.59 °C.
